In PubChem BioAssay (NCI):
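Following 48 hours of exposure in 96-well plates, responses at five concentrations were used to interpolate endpoints linearly. Here, GI50 denotes the concentration required for 50% inhibition of growth. TGI is the concentration that stops growth completely.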

Columns and labels:
Test in all cases: NCI anticancer screen, dose series, 48 h
[1] = system: HT29 colon
[2] = system: KM12 colon
[3] = system: MALME-3M melanoma
[4] = system: RPMI-8226 leukemia
[5] = system: RXF 393 renal
[6] = system: SF-295 CNS
[7] = system: SK-MEL-2 melanoma
[8] = system: SN12C renal
[9] = system: SNB-19 CNS
[10] = system: HL-60(TB) leukemia

O=C(O)[C@@H]1[C@H](C(=O)O)[C@H](C(=O)O)C[C@@H]1C(=O)O
TGI [1]: > 100 µM | TGI [2]: > 100 µM | TGI [3]: > 100 µM | TGI [4]: > 100 µM | TGI [5]: > 100 µM | TGI [6]: > 100 µM | TGI [7]: > 100 µM | TGI [8]: > 100 µM | TGI [9]: > 100 µM

O=C1C=C(NCCNC(=S)Nc2ccccc2)c2nccc3c2c1nc1ccccc13
GI50 [10]: 17.4 µM | TGI [10]: > 100 µM | GI50 [1]: 44.6 µM | TGI [1]: > 100 µM | GI50 [2]: 41.2 µM | TGI [2]: > 100 µM | GI50 [3]: 30.1 µM | TGI [3]: > 100 µM | GI50 [4]: 74.6 µM | TGI [4]: > 100 µM | GI50 [6]: 39.7 µM | TGI [6]: > 100 µM | GI50 [7]: > 100000 nM | TGI [7]: > 100 µM | GI50 [8]: 23.5 µM | TGI [8]: > 100 µM | GI50 [9]: > 100000 nM | TGI [9]: > 100 µM

COc1cc(CCN)c2c(c1OC)SSSSS2
GI50 [10]: 1.57 µM | TGI [10]: 5.09 µM | GI50 [1]: 0.34 µM | TGI [1]: 1.39 µM | GI50 [2]: 1.64 µM | TGI [2]: 3.09 µM | GI50 [3]: 2.08 µM | TGI [3]: 4.09 µM | GI50 [4]: 0.287 µM | TGI [4]: 1.77 µM | GI50 [6]: 1.79 µM | TGI [6]: 3.99 µM | GI50 [7]: 1100 nM | TGI [7]: 2.61 µM | GI50 [8]: 1.13 µM | TGI [8]: 2.38 µM | GI50 [9]: 2450 nM | TGI [9]: 4.72 µM

NCCCOCC(=O)O
TGI [1]: > 100 µM | TGI [2]: > 100 µM | TGI [3]: > 100 µM | TGI [4]: > 100 µM | TGI [5]: > 100 µM | TGI [6]: > 100 µM | TGI [7]: > 100 µM | TGI [8]: > 100 µM | TGI [9]: > 100 µM
